Article PMC12646587, “Advanced cardiotoxicity profiling using field potential imaging with UHD-CMOS-MEA in human iPSC-derived cardiomyocytes” (Toxicological Sciences, 2025)
Values belong to the compound of their own block, whether it stands above or below them.

How the values were obtained:
monolayer hiPSC-CMs = conditions: ref Maddah et al. 2020; cited from earlier work
mouse cardiomyocytes = tested on: mouse cardiomyocytes; parameters: method as in Lin et al. 2024; conditions: ref Lin et al. 2024; cited from earlier work
[1] = tested on: human iPSC-derived cardiomyocytes; assay: PCA and MANOVA of beat parameters after chronic exposure; format: cell-based; conditions: 0.1 µM, relative to all DMSO time points
Procedure: (§1) For mechanism-of-action classification and the cardiotoxicity assessment of doxorubicin, a one-way multivariate analysis of variance (MANOVA) was employed, using principal component (PC)1 and PC2 scores as dependent variables to evaluate significant differences between drug mechanism groups. Statistical significance was determined at P < 0.05.
PCA was conducted to integrate multiple parameter changes into a comprehensive index of cardiotoxicity. The PCA included 6 selected parameters: IBI, Amplitude, Amplitude STV, Area, Velocity, and Velocity STV (Table 7). The first 2 PCs accounted for a cumulative contribution of 69.4%. […] For statistical analysis of cardiotoxicity across time points, PCA plots were categorized into 15 groups based on concentration and exposure duration. MANOVA was performed to compare each group against the DMSO 0.5 h reference (Table 8). No significant differences were detected among DMSO time points.

rat cardiomyocytes = conditions: ref Sag et al. 2011, Ikeda et al. 2019; cited from earlier work
[2] = tested on: human iPSC-derived cardiomyocytes; assay: FPI with UHD-CMOS-MEA, chronic exposure up to 96 h; format: cell-based
Procedure: (§2) Recordings were performed at a sampling rate of 2 kHz, with a 2-min recording duration per condition. Data acquisition was controlled via proprietary software (Sony Semiconductor Solutions), and all raw signals were stored for offline analysis. All experiments were conducted in a humidified environment at 37 °C with 5% CO2, ensuring physiological conditions during both drug exposure and recording.
(§3) Spikes from hiPSC-derived cardiomyocytes were initially detected at each electrode using a voltage threshold of ±100 µV via BinViewer software (SCREEN Holdings Co., Ltd, Japan). The resulting spike data were then processed using a custom MATLAB (MathWorks, Natick, MA) script to perform beat detection. Firing count histograms were generated using a bin size of 0.5 ms, and peak detection within these histograms identified the timing and propagation duration of beats across the electrode array. For each electrode, the maximum spike amplitude and its corresponding peak timing were calculated to generate heat maps of field potential amplitude and activation timing.
as §1
To validate the chronic cardiotoxicity assessment using CMOS-MEA measurements, FPI was performed following long-term exposure to doxorubicin.

hiPSC-CMs [3] = assay: Conventional MEA, chronic exposure; format: cell-based, human; conditions: 0.1 μM
[4] = tested on: Engineered heart tissues derived from human iPSCs; parameters: method as in Arefin et al. 2023; conditions: ref Arefin et al. 2023, cited from earlier work
hERG = conditions: read-out: IC50 hERG; ref Busch et al. 1998; cited from earlier work
cardiomyocytes [5] = conditions: FPDc10 (10% prolongation of FPDc); ref Nozaki et al. 2017; cited from earlier work
CaV = conditions: ref Yao and Tseng 1997; cited from earlier work
IKs = tested on: IKs; parameters: method as in Davies et al. 1996; conditions: ref Davies et al. 1996; cited from earlier work
[6] = ref Lee et al. 2025; cited from earlier work
hiPSC-CMs [7] = assay: Conventional MEA recording (16-electrode Axion Maestro), acute exposure; format: cell-based, human; conditions: acute
Procedure: To enable comparison with the UHD-CMOS-MEA recordings, conventional extracellular field potential recordings were performed using 16-electrode MEA plates on a commercially available MEA system (Axion Maestro, Axion Biosystems), in accordance with the general principles of the CiPA initiative. hiPSC-CMs were cultured and maintained on the MEA plates under spontaneous beating conditions at 37 °C. Recordings were conducted after 10 to 14 DIV, and data acquisition and beat detection were performed using the built-in algorithms of the AxIS software (Axion Biosystems), without the use of external pacing. […] Each compound was applied under acute exposure conditions, and field potential recordings were obtained for 30 min following drug administration.
To evaluate the measurement capabilities of a conventional MEA system, the same set of 7 compounds was tested using the 16-electrode Axion Maestro platform.

NaV = conditions: ref Yao and Tseng 1997; cited from earlier work
cardiomyocytes [8] = conditions: CTD90 ↑; ref Lu et al. 2019; cited from earlier work
[9] = tested on: human iPSC-derived cardiomyocytes; assay: Field potential imaging (FPI) with UHD-CMOS-MEA, acute drug treatment; format: cell-based
Procedure: Cryopreserved iCell Cardiomyocytes (FUJIFILM Cellular Dynamics, Inc.) were handled according to the supplier’s instructions. Cells were thawed in a 37 °C water bath for approximately 3 min and resuspended in iCell Thawing Medium to prepare a cell suspension at a final concentration of 1 × 10^7 cells/ml. A total of 10 µl of the cell suspension (100,000 cells per chip) was seeded directly onto the fibronectin-coated electrode area of each chip. Chips were incubated at 37 °C for 1 h to allow cell attachment, after which 1 ml of maintenance medium was gently added. […] Thereafter, medium exchanges were performed twice weekly by replacing half the medium volume.
Compounds were dissolved in culture medium containing 0.1% DMSO and administered cumulatively at increasing concentrations. Drug solutions were applied directly to the culture wells, and measurements were initiated 30 min after administration. […] All recordings were performed under spontaneous beating conditions, with no external pacing applied.
as §2
as §3, with “timing. […]” for “timing.”

[10] = tested on: human iPSC-derived cardiomyocytes; assay: PCA of beat parameters: cardiotoxicity risk and mechanism classification; format: cell-based
Procedure: Each parameter set was evaluated for its ability to separate cardiotoxic and non-cardiotoxic compounds while maintaining minimal variance among negative controls. […] To assess cardiotoxicity, PCA scores of test compounds were plotted in the PC space, and their positions were compared with the SD-defined zones of the negative control group. Risk levels were classified as follows: Low risk (within 1 SD), medium risk (between 1 and 2 SD), and high risk (beyond 2 SD). Dose-dependent cardiotoxicity potential was estimated based on displacement from the negative control cluster.
To establish a risk classification framework, the standard deviation (SD) range of negative control compounds in PCA space was used to define 3 zones: Within the SD range (low risk), between 1 and 2 SD (medium risk), and beyond 2 SD (high risk) (Fig. 6B). Risk levels derived from PCA distribution were compared with IC50 and Cmax values reported for each compound and associated ion channels (Table 5).

[11] = 0.1 μM, prolonged exposure (48 h)
[12] = acute, statistically significant change vs before

beat area ([2]; 0.03 µM, after 24 h): significant decreases
peak potential ([2]; 0.03 µM, after 24 h): significant decreases
beat rate ([2]; 0.03 µM, chronic exposure): did not significantly alter
changes in conventional parameters such as beat rate and IBI ([2]; 0.1 µM): evident only after 72 h
beat area ([2]; 0.1 µM, beginning at 48 h): reductions
peak potential ([2]; 0.1 µM, beginning at 48 h): reductions
temporal variability metrics (CV and STV) [2, 11]: increase
STV of peak potential ([2]; 0.1 µM, within 0.5 h): decreased
exposure time at which a reduction in spike amplitude began to be detected (hiPSC-CMs [3]): 48 h
Structure (SMILES): COc1cccc2c1C(=O)c1c(O)c3c(c(O)c1C2=O)C[C@@](O)(C(=O)CO)C[C@@H]3O[C@H]1C[C@H](N)[C@H](O)[C@H](C)O1 [Doxorubicin]
concentration at which structural changes were detected (monolayer hiPSC-CMs): exceeding 0.3 μM
concentration giving impaired Ca^2+ handling and reduced contractility (mouse cardiomyocytes): 1000 nM
MANOVA of PCA groups vs DMSO [1]: significant differences were observed after 24 h
concentrations giving Ca^2+ handling abnormalities, apoptosis and contractile dysfunction (rat cardiomyocytes): only at micromolar concentrations
exposure time at which a decline in conduction velocity was detected ([2]; 0.1 μM, CMOS-MEA): 24 h
conduction velocity [2, 11]: decrease
concentration at which cardiotoxicity was detected ([2]; within 24 h, UHD-CMOS-MEA): 30 nM
effect on contractile force ([4]; 125 or 500 nM): no observable effects
concentration giving reduced contractile force ([4]; after 48 h of exposure): 1000 nM

IBI (hiPSC-CMs [7]): prolongation
beat frequency (hiPSC-CMs [7]): consistent reductions
field potential (spike) amplitude (hiPSC-CMs [7]): decreasing trend
propagation area (hiPSC-CMs [7]): statistically significant reduction
IBI (interbeat interval) [9, 12]: increased and ↑
IBI STV [9, 12]: significantly elevated and ↑
BR (beat rate) ([9]; acute, statistically significant change vs before, arrows = direction, – = none): decreased and ↓
FPI (concentration at which changes were detected) ([9]; changed parameters in brackets in each cell): 1 (BR, IBI, IBI STV) μM
Structure (SMILES): CN1CCN(CCCCN2C(=O)CN(/N=C/c3ccc(-c4ccc(Cl)cc4)o3)C2=O)CC1 [Azimilide]
IC50 (hERG): 5.2 µM
MEA assay (cardiomyocytes [5]): 0.129 ([Nozaki et al. 2017]) (FPDc10) µM
IC50 (CaV): 17.8 µM
IC50 (IKs): 0.7 µM
Cmax Free [6]: 0.07 ([Lee et al. 2025]) μM
magnitude of change in propagation area (hiPSC-CMs [7]): less than 5%
IC50 (NaV): 19 µM
HCA assay (cardiomyocytes [8]): 1.0 ([Lu et al. 2019]) (CTD90 ↑) µM
FPI PCA (concentration at which changes were detected) [10]: 1 µM
